Assay [1] deals with T1, Glucocorticoid receptor (Homo sapiens, UniProt P04150).
T1 sequence (P04150 whole entry): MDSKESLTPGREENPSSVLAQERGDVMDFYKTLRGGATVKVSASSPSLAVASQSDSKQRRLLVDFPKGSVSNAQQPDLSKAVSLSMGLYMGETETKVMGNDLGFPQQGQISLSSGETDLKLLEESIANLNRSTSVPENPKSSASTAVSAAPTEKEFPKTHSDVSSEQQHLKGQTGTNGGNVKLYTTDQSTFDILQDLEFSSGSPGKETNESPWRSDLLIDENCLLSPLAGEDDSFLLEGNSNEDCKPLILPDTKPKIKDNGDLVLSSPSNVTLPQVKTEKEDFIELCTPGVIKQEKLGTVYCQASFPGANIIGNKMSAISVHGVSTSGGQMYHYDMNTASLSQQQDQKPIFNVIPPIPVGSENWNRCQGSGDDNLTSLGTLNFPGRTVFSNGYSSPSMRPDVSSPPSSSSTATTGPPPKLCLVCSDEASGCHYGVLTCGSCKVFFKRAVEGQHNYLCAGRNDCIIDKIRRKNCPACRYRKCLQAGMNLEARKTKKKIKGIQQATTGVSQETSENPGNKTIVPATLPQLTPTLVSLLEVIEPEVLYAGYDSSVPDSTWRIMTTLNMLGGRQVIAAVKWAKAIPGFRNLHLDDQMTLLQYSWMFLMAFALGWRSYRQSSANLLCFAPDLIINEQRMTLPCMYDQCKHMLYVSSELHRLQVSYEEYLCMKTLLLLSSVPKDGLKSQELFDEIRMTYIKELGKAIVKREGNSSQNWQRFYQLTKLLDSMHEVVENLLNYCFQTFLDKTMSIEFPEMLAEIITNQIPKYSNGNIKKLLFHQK
To be noted: hela s3.

The next assay concerns the target Cytochrome P450 2C19 (Homo sapiens, UniProt P33261). Further: in other assays of this panel Not Active means under 50% inhibition at 10 µM.
Assay [2] is described as follows: DRUGMATRIX: Purinergic P2X radioligand binding (ligand: [3H] alpha, beta-Methylene-ATP). To be noted: Not Active = under 50% inhibition at 10 µM. Format: cell membranes, Oryctolagus cuniculus, New Zealand albino, Urinary bladder, Membrane.
Assay [3] has as its target T2, Androgen receptor (Rattus norvegicus, UniProt P15207).
T2 sequence (P15207 whole entry): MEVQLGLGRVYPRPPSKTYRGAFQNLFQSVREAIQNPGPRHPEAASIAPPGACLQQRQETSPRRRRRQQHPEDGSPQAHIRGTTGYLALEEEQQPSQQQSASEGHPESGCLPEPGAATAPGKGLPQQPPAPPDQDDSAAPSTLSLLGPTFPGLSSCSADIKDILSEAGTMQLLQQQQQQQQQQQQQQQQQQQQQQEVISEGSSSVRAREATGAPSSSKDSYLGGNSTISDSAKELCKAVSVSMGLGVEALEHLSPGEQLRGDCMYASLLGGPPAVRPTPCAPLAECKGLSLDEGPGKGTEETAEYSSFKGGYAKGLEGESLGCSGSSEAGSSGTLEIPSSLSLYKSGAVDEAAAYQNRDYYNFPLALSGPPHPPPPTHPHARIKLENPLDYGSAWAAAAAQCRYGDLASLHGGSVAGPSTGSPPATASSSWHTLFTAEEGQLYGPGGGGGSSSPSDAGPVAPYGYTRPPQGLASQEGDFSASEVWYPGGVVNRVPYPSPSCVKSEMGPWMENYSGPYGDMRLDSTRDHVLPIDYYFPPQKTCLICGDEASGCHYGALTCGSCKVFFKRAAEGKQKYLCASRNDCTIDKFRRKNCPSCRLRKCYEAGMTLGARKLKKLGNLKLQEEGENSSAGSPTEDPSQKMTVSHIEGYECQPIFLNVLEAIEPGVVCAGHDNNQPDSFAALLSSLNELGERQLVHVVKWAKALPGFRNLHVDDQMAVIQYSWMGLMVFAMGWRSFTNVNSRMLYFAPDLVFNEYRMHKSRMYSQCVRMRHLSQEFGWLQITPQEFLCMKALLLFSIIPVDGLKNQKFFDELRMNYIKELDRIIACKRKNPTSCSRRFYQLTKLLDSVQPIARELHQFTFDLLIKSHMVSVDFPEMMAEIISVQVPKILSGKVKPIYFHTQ

The next assay addresses Cytochrome P450 2C9 (Homo sapiens, UniProt P11712).
Assay [4] has as its target T2, Androgen receptor. The source holds these as a separate data set.
Assay [5] deals with T1, Glucocorticoid receptor. The assay is described as follows: biochemical.
For a further assay, the target named is T3, Cytochrome P450 1A2 (Homo sapiens, UniProt P05177). Further: in other assays of this panel Not Active means under 50% inhibition at 10 µM.
T3 sequence (P05177 whole entry): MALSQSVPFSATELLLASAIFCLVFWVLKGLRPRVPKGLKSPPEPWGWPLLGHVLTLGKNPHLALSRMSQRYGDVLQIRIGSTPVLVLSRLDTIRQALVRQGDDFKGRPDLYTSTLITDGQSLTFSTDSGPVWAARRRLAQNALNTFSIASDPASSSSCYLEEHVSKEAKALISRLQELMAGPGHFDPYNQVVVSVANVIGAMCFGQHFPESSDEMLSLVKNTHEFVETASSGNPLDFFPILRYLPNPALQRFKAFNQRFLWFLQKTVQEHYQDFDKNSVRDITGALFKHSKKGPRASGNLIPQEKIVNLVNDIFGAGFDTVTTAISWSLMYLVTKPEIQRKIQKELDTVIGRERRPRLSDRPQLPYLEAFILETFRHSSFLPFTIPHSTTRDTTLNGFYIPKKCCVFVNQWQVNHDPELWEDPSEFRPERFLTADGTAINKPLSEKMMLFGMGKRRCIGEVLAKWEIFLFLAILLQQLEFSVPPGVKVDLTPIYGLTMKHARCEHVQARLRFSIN

As a reminder, the IC50 is the concentration that gives 50% inhibition. The low end stands for greater potency, the high end for weaker potency. What is called Ki is a measure of affinity in units of concentration, obtained from inhibition or displacement.

Chain of Cytochrome P450 2C19 (P33261 whole entry): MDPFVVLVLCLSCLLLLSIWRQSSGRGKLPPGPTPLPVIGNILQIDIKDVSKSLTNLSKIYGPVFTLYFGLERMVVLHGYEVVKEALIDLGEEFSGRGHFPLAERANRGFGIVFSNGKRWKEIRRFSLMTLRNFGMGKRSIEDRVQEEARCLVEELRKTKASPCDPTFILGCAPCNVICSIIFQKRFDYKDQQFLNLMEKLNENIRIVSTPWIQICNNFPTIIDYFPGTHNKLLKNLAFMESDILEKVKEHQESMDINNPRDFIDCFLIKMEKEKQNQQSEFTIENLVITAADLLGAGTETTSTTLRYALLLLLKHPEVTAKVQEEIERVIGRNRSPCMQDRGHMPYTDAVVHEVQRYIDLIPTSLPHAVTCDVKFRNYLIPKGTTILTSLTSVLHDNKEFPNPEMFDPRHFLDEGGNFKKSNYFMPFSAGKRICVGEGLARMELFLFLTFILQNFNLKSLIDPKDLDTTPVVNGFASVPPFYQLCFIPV
Chain of Cytochrome P450 2C9 (P11712 whole entry): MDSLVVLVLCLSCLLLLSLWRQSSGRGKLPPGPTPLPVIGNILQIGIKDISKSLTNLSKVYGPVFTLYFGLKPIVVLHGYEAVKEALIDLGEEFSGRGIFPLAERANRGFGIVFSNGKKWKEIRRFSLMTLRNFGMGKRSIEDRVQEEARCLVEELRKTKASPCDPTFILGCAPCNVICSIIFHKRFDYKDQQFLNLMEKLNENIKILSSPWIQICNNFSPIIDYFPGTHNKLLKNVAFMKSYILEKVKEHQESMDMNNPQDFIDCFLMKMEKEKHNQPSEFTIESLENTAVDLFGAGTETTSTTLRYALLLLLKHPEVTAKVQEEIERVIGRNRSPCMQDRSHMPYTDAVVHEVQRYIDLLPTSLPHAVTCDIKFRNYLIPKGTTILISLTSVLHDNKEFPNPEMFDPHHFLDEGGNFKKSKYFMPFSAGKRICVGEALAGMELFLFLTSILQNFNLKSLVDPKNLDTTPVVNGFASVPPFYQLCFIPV

Consider `COc1ccccc1C(=O)N1CCC(Cc2ccccc2)CC1`, for which the IC50 result against Glucocorticoid receptor [1] was “Not Active”; against Cytochrome P450 2C19, 800 nM; in assay [2], “Not Active”; against Androgen receptor [3] it was “Not Active”; at Cytochrome P450 2C9, 2000 nM. In assay [2], the inhibitory constant (Ki) result is on record as “Not Active”.
`Cc1ccccc1C(=O)N1CCC(Cc2ccccc2)CC1`: the half-maximal inhibitory concentration (IC50) result against Glucocorticoid receptor [1] is “Not Active”; against Cytochrome P450 2C19, 600 nM; in assay [2], “Not Active”; against Androgen receptor [3] it was “Not Active”; against Cytochrome P450 2C9 it was 1000 nM. Also, the Ki entry in assay [2] is “Not Active”.
Take `S=C=Nc1cccc2ccccc12` [1-NAPHTHYLISOTHIOCYANATE]: the IC50 was 25500 nM on Androgen receptor [4], “Not Active” in assay [2], 15400 nM at Glucocorticoid receptor [5] and 1000 nM against Cytochrome P450 1A2. For the same molecule, the inhibitory constant (Ki) was 17000 nM on Androgen receptor [4], “Not Active” in assay [2] and 7000 nM at Glucocorticoid receptor [5].
For `CC(=O)Nc1cccc(O)c1` [METACETAMOL], in assay [2], the IC50 result is “Not Active” and the Ki result is on record as “Not Active”. In addition, at Cytochrome P450 1A2, the concentration for half-maximal inhibition (IC50) came to 2000 nM.
`CCOC(=O)C1=C(C)NC(C)=C(C(=O)OC)C1c1cccc([N+](=O)[O-])c1` (stereo unspecified) [NITRENDIPINE]: the half-maximal inhibitory concentration (IC50) is 3000 nM at Cytochrome P450 2C19, “Not Active” in assay [2] and 300 nM on Cytochrome P450 2C9. Moreover, the Ki entry in assay [2] is “Not Active”.

Values taken from ChEMBL document CHEMBL1909046, “DrugMatrix in vitro pharmacology data”.
